Data set [1] relates to Caco-2 cell monolayers. The note with it: ref Lu et al., 2008, Liu et al., 2009, Hu et al., 2014, Bowles et al., 2017, cited from earlier work; for Papp(apical→basolateral) / Papp(basolateral→apical): Caco-2 cell monolayers, from literature; for apparent permeability in Caco-2 cell monolayers: previous results.
A short description of data set [2]: Aqueous solubility test (vortexing in water). Particulars: for solubility at 5 min: thermodynamic from solid, determined, water, 25 °C, 1 atm. Type of data set: physicochemical. The procedure: Aqueous solubility (S) test of the 17 ingredients was performed by vortexing 10 mg of each ingredient in […] water in a test tube at ambient temperature and 1 atm. After vortexing for 5 min, if the solution is clear, the tested object will be considered as soluble in water. In silico assessment of the physicochemical properties governing permeation and intestinal absorption was carried out for the 17 ingredients studied. Theory aqueous solubility (S) was calculated with ALOGPS 2.1 online software via the Virtual Computational Chemistry Laboratory service (Chemoinformatics Group, Neuherberg, Germany) (VCCLAB^1). The octanol–water partition coefficient (cLogP), the total hydrogen bond count (donors and acceptors), and topological polar surface area (TPSA) were determined using the Molinspiration Property Calculator (Molinspiration Cheminformatics, Bratislava, Slovak Republic^2). Lipinski’s rule of 5 was used to predict the permeability of the compound ([Lipinski et al., 2001]).

Data set [3] is described as follows: Stability tests in rat plasma (QC samples, HPLC-MS). The note with it: n=5.
Text: Accuracy and precision were expressed by relative error (RE) and coefficient of variance (RSD), respectively.
Data set [4] is described as follows: Multiple component PK study in rat plasma after p.o. GDDP (HPLC-MS). Particulars: for detection in rat plasma: at 5, 10, 15, 30, 45, or 60 min, LOD 0.5–0.7 ng/mL.
In data set [5] the test system is isoprenaline-induced MI in mice. Kind of data set: In vivo anti-MI study: isoprenaline-induced myocardial injury (ECG, H&E histology).
[6] abbreviates: 24h in auto-sampler vials, spiked 2 ng/mL.
Setting [7] is: 24h in auto-sampler vials, spiked 400 ng/mL.
Setting [8] is: 24h in auto-sampler vials, spiked 1600 ng/mL.
[9] abbreviates: Placing plasma for 6h at 4°C, spiked 2 ng/mL.
Where [10] appears, read: Placing plasma for 6h at 4°C, spiked 400 ng/mL.
The mark [11] stands for this setting: Placing plasma for 6h at 4°C, spiked 1600 ng/mL.
The mark [12] stands for this setting: three freeze-thaw cycles, rat plasma, spiked 2 ng/mL.
[13] abbreviates: three freeze-thaw cycles, rat plasma, spiked 400 ng/mL.
[14] abbreviates: three freeze-thaw cycles, rat plasma, spiked 1600 ng/mL.
Where [15] appears, read: Sprague-Dawley, rat, plasma, po, 0.4 g/kg.
[16] abbreviates: Sprague-Dawley, rat, plasma, po, 0.8 g/kg.
The mark [17] stands for this setting: rat plasma, GDDP 0.4 g/kg p.o. (Low dose group), n=3.
Setting [18] is: rat plasma, GDDP 0.8 g/kg p.o. (High dose group), n=3.
The mark [19] stands for this setting: 40 mg/kg p.o. for 7 days, isoprenaline-induced MI.

Marks after values point to notes of the source that are not given here. Where only a bound is given, the exact number is not on record here.

As for `O=C(O)/C=C/c1ccc(O)c(O)c1` [CA, caffeic acid], in data set [1], the “Papp(apical→basolateral)” value is given as 4.35^b ×10^-6 cm/s, the “Papp(basolateral→apical)” value is recorded as 7.74^b ×10^-6 cm/s and the “apparent permeability in Caco-2 cell monolayers” value (shortened to “apparent permeability”) is recorded as ≥ 10^-6 cm/s. Also, the solubility (usually the concentration that dissolves in the medium under given conditions) at 5 min in data set [2] was above 10000 µg/mL.
Consider `Cc1coc2c1C(=O)C(=O)c1c-2ccc2c1CCCC2(C)C` [TS IIA, tanshinone (TS) IIA], for which the “Papp(apical→basolateral)” value in data set [1] is 0.98^d ×10^-6 cm/s. In data set [1], the “Papp(basolateral→apical)” value is given as 11.81^d ×10^-6 cm/s. In addition, in data set [1], the “apparent permeability” value was ≥ 10^-6 cm/s. Also, the “Stability: Measured” value is 2.25 ± 0.34 ng/mL in data set [3] (setting [6]); 464.77 ± 53.87 ng/mL in data set [3] (setting [7]); 1714.76 ± 174.65 ng/mL in data set [3] (setting [8]); 2.14 ± 0.11 ng/mL in data set [3] (setting [9]); 462.76 ± 13.70 ng/mL in data set [3] (setting [10]); 1933.47 ± 224.22 ng/mL in data set [3] (setting [11]). Moreover, the “Stability: Measured” value in data set [3] (setting [12]) amounted to 2.10 ± 0.23 ng/mL; in data set [3] (setting [13]), 468.67 ± 61.03 ng/mL; in data set [3] (setting [14]) it was 1830.46 ± 289.25 ng/mL. The “Stability: RE” value is listed as 12.73% in data set [3] (setting [6]); 16.19% in data set [3] (setting [7]); 7.17% in data set [3] (setting [8]); 6.84% in data set [3] (setting [9]); 15.69% in data set [3] (setting [10]); 20.84% in data set [3] (setting [11]). Besides, the “Stability: RE” value in data set [3] (setting [12]) worked out at 4.94%; in data set [3] (setting [13]) it was 19.13%; in data set [3] (setting [14]), 14.40%. Besides, the “solubility in water (in words)” value in data set [2] (water at 25 °C) was “insoluble”. The “determination in rat plasma at the planned successive PK time points” value in data set [4] (GDDP 0.8 g/kg p.o., 5, 10, 15, 30, 45, 60, and 120 min, LOQ 1.0–1.4 ng/mL) is given as “could be determined”. In addition, the “detection in rat plasma” value in data set [4] (GDDP 0.8 g/kg p.o.) is recorded as “could be detected”. Also, the values for the AUC(0-inf) in data set [4] (setting [15]) and in data set [4] (setting [16]) were 71.7 ± 47.4 ng·h/mL and 90.7 ± 52.9 ng·h/mL, respectively. Further, the AUC(0-t) (commonly the area under the concentration-time curve up to a stated or last time point) in data set [4] (setting [15]) came to 23.5 ± 6.4 ng·h/mL; in data set [4] (setting [16]), 31.1 ± 1.74 ng·h/mL. Besides, the MRT last (commonly a mean duration of stay, worked out from the concentration-time curve) in data set [4] (setting [15]) was 5.4 ± 0.41 h; in data set [4] (setting [16]) it was 5.23 ± 0.04 h. The Cmax – broadly, the peak of the concentration-time curve – in data set [4] (Sprague-Dawley, rat, plasma, po, 0.4 g/kg, Cmax, rat plasma, GDDP 0.4 g/kg p.o. (Low dose group), n=3) was 4.04 ± 0.72 ng/mL; in data set [4] (Sprague-Dawley, rat, plasma, po, 0.8 g/kg, Cmax (high / low plasma drug concentrations), rats, GDDP 0.4 and 0.8 g/kg p.o., classification), below 10 ng/mL; in data set [4] (Sprague-Dawley, rat, plasma, po, 0.8 g/kg, Cmax, rat plasma, GDDP 0.8 g/kg p.o. (High dose group), n=3), 9.21 ± 0.78 ng/mL. Besides, the Tmax (usually the time from dosing to the highest level) in data set [4] (setting [16]) was 0.33 ± 0.14 h; in data set [4] (setting [17]), 0.25 ± 0.00 h. The half-life (commonly how long it takes for the measured level to halve) in data set [4] (Sprague-Dawley, rat, plasma, po, 0.8 g/kg, t1/2 β (fast / slow elimination type), rats, GDDP 0.4 and 0.8 g/kg p.o., classification) was above 2.6 h; in data set [4] (Sprague-Dawley, rat, plasma, po, 0.8 g/kg, t1/2 β, rat plasma, GDDP 0.8 g/kg p.o. (High dose group), n=3) it was 18.3 ± 13 h. The results for the Cltot in data set [4] (setting [17]) and in data set [4] (setting [18]) were 382.2 ± 252.5 mL/min/kg and 585.2 ± 304.2 mL/min/kg, respectively. Further, the “MRT0-∞” value in data set [4] (setting [17]) came out at 27.09 ± 16.67 h; in data set [4] (setting [18]), 26.52 ± 19.83 h. The “t1/2 β” value in data set [4] (setting [17]) is 18.14 ± 12.52 h. Besides, the “ST segment elevations on the seventh day of the trial” value in data set [5] (40 mg/kg p.o. for 7 days, compared with model group, P < 0.05) is reported as “significantly decreased”. In data set [5] (setting [19]), the “Histopathology of heart tissue (H&E)” value was “edema, inflammatory infiltration, and loss of striations in heart tissue”. Also, the “anti-MI effect (overall conclusion)” value in data set [5] (setting [19]) is reported as “mild therapeutic effect”. Also, the “ECG (lead II) findings on the fifth day of the trial” value in data set [5] (40 mg/kg p.o., isoprenaline 5 mg/kg on days 4 and 5) is recorded as “ST segment elevated”.
With `CC(C)=CCC[C@](C)(O[C@@H]1O[C@H](CO)[C@@H](O)[C@H](O)[C@H]1O)[C@H]1CC[C@]2(C)[C@@H]1[C@H](O)C[C@@H]1[C@@]3(C)CC[C@H](O)C(C)(C)[C@@H]3[C@@H](O[C@@H]3O[C@H](CO)[C@@H](O)[C@H](O)[C@H]3O[C@@H]3O[C@@H](C)[C@H](O)[C@@H](O)[C@H]3O)C[C@]12C` [Re, ginsenoside Re], in data set [1], the “Papp(apical→basolateral)” value is > 0.1^c ×10^-6 cm/s and the “Papp(basolateral→apical)” value was > 0.1^c ×10^-6 cm/s. The solubility at 5 min in data set [2] was above 10000 µg/mL. Further, the “detection in rat plasma” value in data set [4] (GDDP 0.8 g/kg p.o.) is “could be detected”.
On to `O=C(/C=C/c1ccc(O)c(O)c1)O[C@H](Cc1ccc(O)c(O)c1)C(=O)O` [RA, rosmarinic acid], for which, in data set [1], the “Papp(apical→basolateral)” value was 0.523^a ×10^-6 cm/s and the “Papp(basolateral→apical)” value was 0.550^a ×10^-6 cm/s. In data set [2], this compound displayed a solubility at 5 min above 10000 µg/mL.
With `O=C(/C=C/c1ccc(O)c2c1C(C(=O)OC(Cc1ccc(O)c(O)c1)C(=O)O)C(c1ccc(O)c(O)c1)O2)OC(Cc1ccc(O)c(O)c1)C(=O)O` (centres unmarked) [SAB, SA B], in data set [1], the “Papp(apical→basolateral)” value is reported as 0.0200^a ×10^-6 cm/s and the “Papp(basolateral→apical)” value is listed as 0.0377^a ×10^-6 cm/s. The solubility at 5 min in data set [2] was above 10000 µg/mL.
In the case of `O=C(/C=C/c1ccc(O)c(O)c1/C=C/c1ccc(O)c(O)c1)OC(Cc1ccc(O)c(O)c1)C(=O)O` (centres unmarked) [SAA, SA A], in data set [1], the “Papp(apical→basolateral)” value is 0.0595^a ×10^-6 cm/s and the “Papp(basolateral→apical)” value is listed as 0.0554^a ×10^-6 cm/s. In data set [2], the solubility at 5 min was above 10000 µg/mL.
For `O=C(O)c1ccc(O)c(O)c1` [PCA, protocatechuic acid], in data set [1], the “Papp(apical→basolateral)” value was 4.52^b ×10^-6 cm/s, the “Papp(basolateral→apical)” value is 6.91^b ×10^-6 cm/s and the “apparent permeability” value was ≥ 10^-6 cm/s. Further, in data set [2], the solubility at 5 min was above 10000 µg/mL. The “detection in rat plasma” value in data set [4] (GDDP 0.8 g/kg p.o.) is reported as “could be detected”.
As to `O=C(O)C(O)Cc1ccc(O)c(O)c1` (centres unmarked) [DSS, danshensu], the solubility at 5 min in data set [2] is above 10000 µg/mL. Moreover, the “detection in rat plasma at more than 15 min after administration” value in data set [4] (GDDP 0.4 and 0.8 g/kg B.W.) is given as “could not be detected”. Moreover, the “detection in rat plasma” value in data set [4] (GDDP 0.8 g/kg p.o.) is listed as “could be detected”. This compound displayed a plasma level in data set [4] (rats, GDDP 0.4 and 0.8 g/kg, more than 15 min after administration, below LOD) below 0.5 ng/mL.
On to `O=Cc1ccc(O)c(O)c1` [PCAL, protocatechuic aldehyde], for which, in data set [1], the “Papp(apical→basolateral)” value was 12.1^a ×10^-6 cm/s, the “Papp(basolateral→apical)” value was 21.8^a ×10^-6 cm/s and the “apparent permeability” value is ≥ 10^-6 cm/s. Besides, the solubility at 5 min in data set [2] is above 10000 µg/mL. In addition, the “detection in rat plasma” value in data set [4] (GDDP 0.8 g/kg p.o.) was “could be detected”.
With `O=C(/C=C/c1ccc(O)c2c1[C@H](C(=O)O)[C@@H](c1ccc(O)c(O)c1)O2)O[C@H](Cc1ccc(O)c(O)c1)C(=O)O` [LA, lithospermic acid], in data set [1], the “Papp(apical→basolateral)” value is 0.0816^a ×10^-6 cm/s and the “Papp(basolateral→apical)” value is 0.0413^a ×10^-6 cm/s. Further, the solubility at 5 min in data set [2] is above 10000 µg/mL.

Values taken from publication PMC6308302, “Identification of Pharmacokinetic Markers for Guanxin Danshen Drop Pills in Rats by Combination of Pharmacokinetics, Systems Pharmacology, and Pharmacodynamic Assays” (Frontiers in Pharmacology, 2018).
